Experimental data: patent publication US20090274622A1, “NECROSIS AVID TRACER AGENT” (K.U. Leuven Research & Development, priority 2003, published 2009)

Experiments:
[1] = test system: reperfused hepatic infarction; assay: Biodistribution of MIH in rats with reperfused hepatic infarction (tissue radioactivity counting); settings: for Biodistribution, Blood / Biodistribution, Heart / Biodistribution, Kidneys / Biodistribution, Large intestine / Biodistribution, Lungs / Biodistribution, Muscle / Biodistribution, Necrotic liver / Biodistribution, Normal liver / Biodistribution, Small intestine / Biodistribution, Spleen / Biodistribution, Stomach / Biodistribution, Thyroid / Necrotic liver/Blood ratio / Necrotic liver/Intact liver ratio / Necrotic liver/Muscle ratio: i.v., mean ± SD, n = 3
[2] = test system: reperfused hepatic infarction; assay: Ex vivo autoradiography of rat liver slices with TTC and H&E staining
[3] = test system: occlusive myocardial infarction; assay: In vivo SPECT imaging of rabbit with myocardial infarction; settings: 24 and 48 hours post injection
Description: All animal experiments were conducted with the approval of the institutional ethical committee. • 1. […] Occlusive myocardial infarction: A New-Zealand adult rabbit weighing about 5 kg was sedated with intramuscular injection of a mixed solution of Ketalar (ketamine hydrochloride, Pfizer, Brussels, Belgium) at 15 mg/kg and Rompun (xylazine hydrochloride, Bayer, Leverkusen, Germany) at 2.5 mg/kg. The animal was then anaesthetized with an intravenous bolus injection of Nembutal at 15 mg/kg followed by IV infusion of Nembutal at 0.1 mg/kg/min through an ear vein. Under a cold-light laryngoscope with No. 1 pediatric blade (Riester®, Jungingen, Germany), the animal was intubated with a 3.5-mm endotracheal tube, which was then connected to an artificial ventilator (Mark 7 respirator, Bird Corporation, Palm Springs, Calif.). An open chest surgery of left posterolateral thoracotomy was performed. The pericardium was opened to expose the left circumflex coronary artery (LCX). A loose snare loop of a 3-0 silk suture was applied around the artery and tightened with ligature. The chest was closed after evacuation of the pneumothorax.
Two hours after reperfusion of the myocardial infarction, the rabbit was intravenously injected with 130 MBq MIH via an ear vein.
The rabbit imaging measurements were performed using a two-detector gamma camera (E-cam, Siemens Medical Systems, ErIangen, Germany). […]

[4] = test system: HDL and LDL; settings: reference 37; cited from earlier work
[5] = test system: occlusive myocardial infarction; assay: Tissue radioactivity counting of normal and infarcted rabbit myocardium; settings: gamma counting, 48 h
[6] = test system: occlusive myocardial infarction; assay: Ex vivo autoradiography of rabbit heart slices
[7] = quantification of autoradiography image

## Cc1cc(O)c2c(=O)c3c(O)cc(O)c4c5c(O)c([123I])c(O)c6c(=O)c7c(O)cc(C)c8c1c2c(c34)c(c78)c65 [MIH, mono-[^123I]iodohypericin]
[1]; 24 hours p.i.
  concentration ratio necrotic liver vs. blood: 17
  concentration ratio necrotic liver vs. muscle: 57
[1]; 24 h p.i.
  concentration in necrotic liver tissue relative to intact liver tissue: 3.2 times
  in vivo deiodination (thyroid concentration): in vivo deiodination of MIH occurs
  Biodistribution, Blood: 0.10 ± 0.01 % of injected dose per gram tissue
  Biodistribution, Heart: 0.24 ± 0.08 % of injected dose per gram tissue
  Biodistribution, Kidneys: 0.18 ± 0.02 % of injected dose per gram tissue
  Biodistribution, Large intestine: 1.47 ± 0.13 % of injected dose per gram tissue
  Biodistribution, Lungs: 1.06 ± 0.30 % of injected dose per gram tissue
  Biodistribution, Muscle: 0.03 ± 0.00 % of injected dose per gram tissue
  Biodistribution, Necrotic liver: 1.71 ± 0.32 % of injected dose per gram tissue
  Biodistribution, Normal liver: 0.55 ± 0.15 % of injected dose per gram tissue
  Biodistribution, Small intestine: 0.27 ± 0.02 % of injected dose per gram tissue
  Biodistribution, Spleen: 0.43 ± 0.07 % of injected dose per gram tissue
  Biodistribution, Stomach: 0.37 ± 0.13 % of injected dose per gram tissue
  Biodistribution, Thyroid: 9.25 ± 3.25 % of injected dose per gram tissue
  Necrotic liver/Blood ratio: 17.40 ± 1.19
  Necrotic liver/Intact liver ratio: 3.18 ± 0.49
  Necrotic liver/Muscle ratio: 57.09 ± 4.24
[1]; 30 min p.i.
  Biodistribution, Blood: 1.34 ± 0.38 % of injected dose per gram tissue
  Biodistribution, Heart: 0.47 ± 0.13 % of injected dose per gram tissue
  Biodistribution, Kidneys: 0.35 ± 0.05 % of injected dose per gram tissue
  Biodistribution, Large intestine: 0.03 ± 0.01 % of injected dose per gram tissue
  Biodistribution, Lungs: 1.60 ± 0.58 % of injected dose per gram tissue
  Biodistribution, Muscle: 0.03 ± 0.01 % of injected dose per gram tissue
  Biodistribution, Necrotic liver: 1.91 ± 0.46 % of injected dose per gram tissue
  Biodistribution, Normal liver: 3.80 ± 1.39 % of injected dose per gram tissue
  Biodistribution, Small intestine: 0.09 ± 0.03 % of injected dose per gram tissue
  Biodistribution, Spleen: 2.19 ± 0.18 % of injected dose per gram tissue
  Biodistribution, Stomach: 0.03 ± 0.00 % of injected dose per gram tissue
  Biodistribution, Thyroid: 0.16 ± 0.02 % of injected dose per gram tissue
  Necrotic liver/Blood ratio: 1.44 ± 0.10
  Necrotic liver/Intact liver ratio: 0.57 ± 0.28
  Necrotic liver/Muscle ratio: 75.80 ± 16.34
[2]; 30 min p.i.
  autoradiography uptake in intact liver: Pronounced radioactivity uptake
  autoradiography uptake in necrotic regions of infarcted liver lobe: low uptake of MIH
[2]; 24 h p.i.
  autoradiography uptake in intact liver: activity from the intact liver has cleared
  autoradiography uptake in necrotic regions of infarcted liver tissue: relatively high uptake of MIH
[3]
  whole body SPECT, coronal section: only one hot spot in the anatomical area of the heart
[4]
  binding to HDL and LDL in vivo: bind extensively to HDL and LDL
[5]
  radiotracer concentration in infarcted tissue vs healthy myocardium: 7 fold
  uptake in the infarcted region of myocardium: 0.36 % of ID/g
  uptake in the normal region of myocardium: 0.05 % of ID/g
[6]
  autoradiography distribution of radioactive uptake in heart slice: radioactive uptake appears only in the infarcted region
[6]; [7]
  uptake ratio infarcted tissue limited to subendocardial area vs. control tissue: 16
  uptake ratio overall infarcted myocardium vs. intact myocardium: about 6

## Cc1cc(O)c2c(=O)c3c(O)cc(O)c4c5c(O)cc(O)c6c(=O)c7c(O)cc(C)c8c1c2c(c34)c(c78)c65 [hypericine, hypericin, reference compound]
[4]
  binding to HDL and LDL in vivo: bind extensively to HDL and LDL
